According to US10807970B2 (priority 2016, dated 2020):

Molecular target: human σ1 receptor (Homo sapiens, UniProt Q99720)
Experiment: Human σ1 receptor radioligand assay ([3H](+)-pentazocine, transfected HEK-293 membranes)
Type: binding
Set-up: μ and σ1 dual binding: key to the marks not given beside the values
Conditions: one class symbol for both Ki-σ1 (human σ1 receptor, A1) and Ki-μ (human μ-opioid receptor, A2)
Method in brief: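 Membranes from HEK-293 cells transfected with human σ1 receptor (7 μg) incubated with 5 nM [3H](+)-pentazocine in 50 mM Tris-HCl pH 8, 120 min at 37° C. Non-specific binding defined with 10 μM haloperidol. Bound radioligand separated by filtration, washed with ice-cold 10 mM Tris-HCl pH 7.4, and counted by scintillation.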

Chain of human σ1 receptor (Q99720 whole entry): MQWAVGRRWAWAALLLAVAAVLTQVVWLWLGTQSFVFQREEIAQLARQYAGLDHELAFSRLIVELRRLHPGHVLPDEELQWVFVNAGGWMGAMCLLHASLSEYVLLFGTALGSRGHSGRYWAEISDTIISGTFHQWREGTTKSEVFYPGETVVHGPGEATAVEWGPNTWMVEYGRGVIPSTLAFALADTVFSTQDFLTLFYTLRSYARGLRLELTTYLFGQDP

**Q.** How did the “μ and σ1 dual binding” value turn out when CC1(C)CC(C(=O)c2ccccn2)(C2CCN(Cc3ccccc3F)CC2)CCO1 (stereo not shown) [Example 110, (4-(1-(2-fluorobenzyl)piperidin-4-yl)-2,2-dimethyltetrahydro-2H-pyran-4-yl)(pyridin-2-yl)methanone] was run?
**A.** ++

**Q.** Which “μ and σ1 dual binding” value does the source give for CC[C@@]1(N2CCN(CCc3ccccc3)CC2)CCOC(C)(C)C1 [Example 113, (R) 1-(4-ethyl-2,2-dimethyltetrahydro-2H-pyran-4-yl)-4-phenethylpiperazine] here?
**A.** ++

**Q.** Which “μ and σ1 dual binding” value does the source give for c1ccc(C2(N3CCN(Cc4cccnc4)CC3)CCOC3(CCCC3)C2)cc1 (stereo not shown) [Example 119, 1-(9-phenyl-6-oxaspiro[4.5]decan-9-yl)-4-(pyridin-3-ylmethyl)piperazine] here?
**A.** ++

**Q.** How did the “μ and σ1 dual binding” value turn out when c1ccc(C2(N3CCN(Cc4ccccn4)CC3)CCOC3(CCCC3)C2)cc1 (stereo not shown) [Example 120, 1-(9-phenyl-6-oxaspiro[4.5]decan-9-yl)-4-(pyridin-2-ylmethyl)piperazine] was run?
**A.** ++

**Q.** N#Cc1cccc(CN2CCN(C3(c4ccccc4)CCOC4(CCCC4)C3)CC2)c1 (stereo not shown) [Example 121, 3-((4-(9-phenyl-6-oxaspiro[4.5]decan-9-yl)piperazin-1-yl)methyl)benzonitrile] was tested. Which “μ and σ1 dual binding” value did it give?
**A.** ++

**Q.** How did the “μ and σ1 dual binding” value turn out when CC(C)CN1CCN(C2(Cc3ccccc3)CCOC3(CCCC3)C2)CC1 (stereo not shown) [Example 123, 1-(9-benzyl-6-oxaspiro[4.5]decan-9-yl)-4-isobutylpiperazine] was run?
**A.** ++

**Q.** For c1ccc(CN2CCC(C3(c4ccccn4)CCOCC3)CC2)cc1 [Example 124, 2-(4-(1-benzylpiperidin-4-yl)tetrahydro-2H-pyran-4-yl)pyridine], which “μ and σ1 dual binding” value is on record?
**A.** ++

**Q.** With CC1(C)CC(C(O)c2ccccn2)(N2CCN(Cc3ccccc3)CC2)CCO1 (stereo not shown) [Example 129, (4-(4-benzylpiperazin-1-yl)-2,2-dimethyltetrahydro-2H-pyran-4-yl)(pyridin-2-yl)methanol] as the compound, how does the “μ and σ1 dual binding” value read?
**A.** ++

**Q.** OC(c1ccccn1)C1(C2CCN(Cc3ccccc3)CC2)CCOCC1 (stereo not shown) [Example 130, (4-(1-benzylpiperidin-4-yl)tetrahydro-2H-pyran-4-yl)(pyridin-2-yl)methanol] was tested. Which “μ and σ1 dual binding” value did it give?
**A.** ++

**Q.** How did the “μ and σ1 dual binding” value turn out when CC1(C)CC(C2CCN(Cc3ccccc3)CC2)(C(O)c2ccccn2)CCO1 (stereo not shown) [Example 131, (4-(1-benzylpiperidin-4-yl)-2,2-dimethyltetrahydro-2H-pyran-4-yl)(pyridin-2-yl)methanol] was run?
**A.** ++

**Q.** How did the “μ and σ1 dual binding” value turn out when CC(C)OCCN1CCN([C@@]2(C(=O)c3ccccn3)CCOC(C)(C)C2)CC1 [Example 134, (S)-(4-(4-(2-isopropoxyethyl)piperazin-1-yl)-2,2-dimethyltetrahydro-2H-pyran-4-yl)(pyridin-2-yl)methanone] was run?
**A.** ++

**Q.** Which “μ and σ1 dual binding” value does the source give for CC(C)COCCN1CCN([C@@]2(C(=O)c3ccccn3)CCOC(C)(C)C2)CC1 [Example 136, (S)-(4-(4-(2-isobutoxyethyl)piperazin-1-yl)-2,2-dimethyltetrahydro-2H-pyran-4-yl)(pyridin-2-yl)methanone] here?
**A.** ++

**Q.** CN(Cc1ccccc1)[C@H]1CCN([C@]2(C(=O)c3ccccn3)CCOC(C)(C)C2)C1 [Example 141, ((R)-4-((S)-3-(benzyl(methyl)amino)pyrrolidin-1-yl)-2,2-dimethyltetrahydro-2H-pyran-4-yl)(pyridin-2-yl)methanone] was tested. Which “μ and σ1 dual binding” value did it give?
**A.** ++

**Q.** CN(Cc1ccccc1)[C@@H]1CCN([C@@]2(C(=O)c3ccccn3)CCOC(C)(C)C2)C1 [Example 143] was tested. Which “μ and σ1 dual binding” value did it give?
**A.** ++

**Q.** Which “μ and σ1 dual binding” value does the source give for CC(C)OCCN(C)[C@H]1CCN([C@]2(C(=O)c3ccccn3)CCOC(C)(C)C2)C1 [Example 146, ((R)-4-((S)-3-((2-isopropoxyethyl)(methyl)amino)pyrrolidin-1-yl)-2,2-dimethyltetrahydro-2H-pyran-4-yl)(pyridin-2-yl)methanone] here?
**A.** ++

Same assay, conditions: one class symbol for both Ki-σ1 (human σ1 receptor, A1) and Ki-μ (human μ-opioid receptor, A2); read-out: μ and σ1 dual binding

**Q.** For CC[C@]1(N2CCN(CCc3ccccc3)CC2)CCOC(C)(C)C1 [Example 112, (S)-1-(4-ethyl-2,2-dimethyltetrahydro-2H-pyran-4-yl)-4-phenethylpiperazine], which Ki is on record?
**A.** < 0.5 µM

**Q.** Which Ki does the source give for CC1(C)CC(C(=O)c2ccccn2)(N2CCN(CCC(F)(F)F)CC2)CCO1 (stereo not shown) [Example 127, (2,2-dimethyl-4-(4-(3,3,3-trifluoropropyl)piperazin-1-yl)tetrahydro-2H-pyran-4-yl)(pyridin-2-yl)methanone] here?
**A.** > 0.5 µM

**Q.** For CC(C)OCCN1CCN([C@]2(C(=O)c3ccccn3)CCOC(C)(C)C2)CC1 [Example 135, (R)-(4-(4-(2-isopropoxyethyl)piperazin-1-yl)-2,2-dimethyltetrahydro-2H-pyran-4-yl)(pyridin-2-yl)methanone], which Ki is on record?
**A.** < 0.5 µM

**Q.** How did the Ki turn out when CC(C)OCCN1CCN([C@]2(C(=O)c3ccccn3)CCOC(C)(C)C2)CC1 [Example 139, (R)-(4-(4-(2-isopropoxyethyl)piperazin-1-yl)-2,2-dimethyltetrahydro-2H-pyran-4-yl)(pyridin-2-yl)methanone] was run?
**A.** > 0.5 µM

**Q.** For CC(C)OCCN(C)[C@@H]1CCN([C@]2(C(=O)c3ccccn3)CCOC(C)(C)C2)C1 [Example 144, ((R)-4-((R)-3-((2-isopropoxyethyl)(methyl)amino)pyrrolidin-1-yl)-2,2-dimethyltetrahydro-2H-pyran-4-yl)(pyridin-2-yl)methanone], which Ki is on record?
**A.** < 0.5 µM

**Q.** How did the Ki turn out when CC(C)OCCN(C)[C@@H]1CCN([C@@]2(C(=O)c3ccccn3)CCOC(C)(C)C2)C1 [Example 145, ((S)-4-((R)-3-((2-isopropoxyethyl)(methyl)amino)pyrrolidin-1-yl)-2,2-dimethyltetrahydro-2H-pyran-4-yl)(pyridin-2-yl)methanone] was run?
**A.** > 0.5 µM

Same assay, conditions: μ and σ1 dual binding, one class symbol for both Ki-σ1 (human σ1 receptor, A1) and Ki-μ (human μ-opioid receptor, A2)

**Q.** For CC1(C)CC(C(=O)c2ccccn2)(N2CCN(CCc3ccccc3F)CC2)CCO1 (stereo not shown) [Example 111, (4-(4-(2-fluorophenethyl)piperazin-1-yl)-2,2-dimethyltetrahydro-2H-pyran-4-yl)(pyridin-2-yl)methanone], which Ki is on record?
**A.** < 0.5 µM

**Q.** Which Ki does the source give for CC(C)CCN1CCC([C@]2(C(=O)c3ccccn3)CCOC(C)(C)C2)CC1 [Example 114, (S)-(4-(1-isopentylpiperidin-4-yl)-2,2-dimethyltetrahydro-2H-pyran-4-yl)(pyridin-2-yl)methanone] here?
**A.** < 0.5 µM

**Q.** With CC(C)CCN1CCC([C@@]2(C(=O)c3ccccn3)CCOC(C)(C)C2)CC1 [Example 115, (R)-(4-(1-isopentylpiperidin-4-yl)-2,2-dimethyltetrahydro-2H-pyran-4-yl)(pyridin-2-yl)methanone] as the compound, how does the Ki read?
**A.** < 0.5 µM

**Q.** How did the Ki turn out when CC(C)(F)COCCN1CCN(C2(C(=O)c3ccccn3)CCOC(C)(C)C2)CC1 (stereo not shown) [Example 116, (4-(4-(2-(2-fluoro-2-methylpropoxy)ethyl)piperazin-1-yl)-2,2-dimethyltetrahydro-2H-pyran-4-yl)(pyridin-2-yl)methanone] was run?
**A.** < 0.5 µM

**Q.** For CC(C)(F)CCN1CCN(C2(C(=O)c3ccccn3)CCOC(C)(C)C2)CC1 (stereo not shown) [Example 117, (4-(4-(3-fluoro-3-methylbutyl)piperazin-1-yl)-2,2-dimethyltetrahydro-2H-pyran-4-yl)(pyridin-2-yl)methanone], which Ki is on record?
**A.** < 0.5 µM

**Q.** How did the Ki turn out when C=C(C)CCN1CCN(C2(C(=O)c3ccccn3)CCOC(C)(C)C2)CC1 (stereo not shown) [Example 118, (2,2-Dimethyl-4-(4-(3-methylbut-3-enyl)piperazin-1-yl)tetrahydro-2H-pyran-4-yl)(pyridin-2-yl)methanone] was run?
**A.** < 0.5 µM

**Q.** For c1ccc(CC2(N3CCN(Cc4cccnc4)CC3)CCOC3(CCCC3)C2)cc1 (stereo not shown) [Example 122, 1-(9-benzyl-6-oxaspiro[4.5]decan-9-yl)-4-(pyridin-3-ylmethyl)piperazine], which Ki is on record?
**A.** < 0.5 µM

**Q.** With CC1(C)CC(c2ccccn2)(C2CCN(Cc3ccccc3)CC2)CCO1 (stereo not shown) [Example 125, 2-(4-(1-benzylpiperidin-4-yl)-2,2-dimethyltetrahydro-2H-pyran-4-yl)pyridine] as the compound, how does the Ki read?
**A.** > 0.5 µM

**Q.** How did the Ki turn out when CC(C)CN1CCC(C2(c3ccccn3)CCOC(C)(C)C2)CC1 (stereo not shown) [Example 126, 2-(4-(1-isobutylpiperidin-4-yl)-2,2-dimethyltetrahydro-2H-pyran-4-yl)pyridine] was run?
**A.** > 0.5 µM

**Q.** For CC1(C)CC(C(=O)c2ccccn2)(N2CCN(CCC3CC3)CC2)CCO1 (stereo not shown) [Example 128, (4-(4-(2-cyclopropylethyl)piperazin-1-yl)-2,2-dimethyltetrahydro-2H-pyran-4-yl)(pyridin-2-yl)methanone], which Ki is on record?
**A.** < 0.5 µM

**Q.** Which Ki does the source give for CC(C)CCN1CCN([C@@]2(C(=O)c3ccccn3)CCOC(C)(C)C2)CC1 [Example 132, (S)-(4-(4-isopentylpiperazin-1-yl)-2,2-dimethyltetrahydro-2H-pyran-4-yl)(pyridin-2-yl)methanone] here?
**A.** < 0.5 µM

**Q.** CC(C)CCN1CCN([C@]2(C(=O)c3ccccn3)CCOC(C)(C)C2)CC1 [Example 133, (R)-(4-(4-isopentylpiperazin-1-yl)-2,2-dimethyltetrahydro-2H-pyran-4-yl)(pyridin-2-yl)methanone] was tested. Which Ki did it give?
**A.** < 0.1 µM

**Q.** Which Ki does the source give for CC(C)COCCN1CCN([C@]2(C(=O)c3ccccn3)CCOC(C)(C)C2)CC1 [Example 137, (R)-(4-(4-(2-isobutoxyethyl)piperazin-1-yl)-2,2-dimethyltetrahydro-2H-pyran-4-yl)(pyridin-2-yl)methanone] here?
**A.** < 0.5 µM

**Q.** For CN(Cc1ccccc1)[C@H]1CCN(C2(C(=O)c3ccccn3)CCOC(C)(C)C2)C1 (stereo partly drawn) [Example 138, (4-((S)-3-(benzyl(methyl)amino)pyrrolidin-1-yl)-2,2-dimethyltetrahydro-2H-pyran-4-yl)(pyridin-2-yl)methanone], which Ki is on record?
**A.** > 0.5 µM

**Q.** For CN(Cc1ccccc1)[C@H]1CCN([C@@]2(C(=O)c3ccccn3)CCOC(C)(C)C2)C1 [Example 140, ((S)-4-((S)-3-(benzyl(methyl)amino)pyrrolidin-1-yl)-2,2-dimethyltetrahydro-2H-pyran-4-yl)(pyridin-2-yl)methanone], which Ki is on record?
**A.** < 0.5 µM

**Q.** How did the Ki turn out when CN(Cc1ccccc1)[C@@H]1CCN([C@]2(C(=O)c3ccccn3)CCOC(C)(C)C2)C1 [Example 142] was run?
**A.** < 0.1 µM
